# According to EP4603105A1, “PHARMACEUTICAL COMPOSITION CONTAINING CYCLIC COMPOUND HAVING SELECTIVE KRAS INHIBITORY EFFECT AGAINST HRAS AND NRAS” (CHUGAI SEIYAKU KABUSHIKI KAISHA, priority 2022, dated 2024):
# How the values were obtained:
# [1] = molecular target: GDP-bound KRAS wild-type protein (Homo sapiens, UniProt P01116); assay: Binding to KRAS by surface plasmon resonance (SPR), dissociation constant KD
# How it was run: (§1)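 Recombinant RAS proteins bearing a biotinylated Avi tag and loaded with GDP served as the captured ligand, recaptured fresh every cycle. Binding responses were referenced to an uncoated surface and a buffer-only blank cycle. Dissociation constants were obtained by 1:1 model fitting at 30°C.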
# [2] = test system: human lung cancer strain NCI-H441; assay: NCI-H441 cell proliferation inhibitory activity (CellTiter-Glo, 4 days); format: cell-based; conditions: NCI-H441 cells, 4 days, read-out: NCl-H441 IC50
# How it was run: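 Signal came from […] measured per well once the reagent was added. Beforehand, cells were cultured at 37°C and 5% carbon dioxide on a compound series serially diluted in dimethyl sulfoxide.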
# [3] = molecular target: GDP-bound NRAS wild-type protein (Homo sapiens, UniProt P01111); assay: Binding to NRAS by surface plasmon resonance (SPR), KD and KD ratio to KRAS; conditions: ratio of KD for GDP-bound NRAS wild-type protein to KD for KRAS
# How it was run: as §1
# HRAS wild-type protein = HRAS wild-type protein (Homo sapiens, UniProt P01112); assay: Binding to HRAS by surface plasmon resonance (SPR), KD and KD ratio to KRAS; conditions: ratio of KD for HRAS wild-type protein to KD for KRAS
# How it was run: as §1
# HRAS wild-type protein, sequence (P01112 whole entry): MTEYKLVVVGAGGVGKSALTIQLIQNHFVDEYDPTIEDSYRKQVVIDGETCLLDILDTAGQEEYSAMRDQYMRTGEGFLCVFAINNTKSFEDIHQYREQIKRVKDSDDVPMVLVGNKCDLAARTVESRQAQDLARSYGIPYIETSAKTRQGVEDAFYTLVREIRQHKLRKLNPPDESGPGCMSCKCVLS
# GDP-bound KRAS wild-type protein, sequence (P01116 1-188 isoform P01116-2): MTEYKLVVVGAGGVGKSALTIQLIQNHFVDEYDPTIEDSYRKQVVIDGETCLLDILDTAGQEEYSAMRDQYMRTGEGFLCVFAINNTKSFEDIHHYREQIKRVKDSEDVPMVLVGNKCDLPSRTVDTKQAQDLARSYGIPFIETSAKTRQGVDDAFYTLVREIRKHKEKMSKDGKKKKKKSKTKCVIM
# GDP-bound NRAS wild-type protein, sequence (P01111 whole entry): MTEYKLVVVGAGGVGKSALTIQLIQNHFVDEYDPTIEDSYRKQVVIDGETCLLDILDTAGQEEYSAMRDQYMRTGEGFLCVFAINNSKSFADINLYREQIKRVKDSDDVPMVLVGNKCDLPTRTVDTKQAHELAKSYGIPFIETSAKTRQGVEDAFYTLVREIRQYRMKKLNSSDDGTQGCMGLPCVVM
compound,measurement,setting,value
CCOC[C@H]1C(=O)N[C@@H]([C@@H](C)CC)C(=O)N(C)CC(=O)N(C)[C@H]2C/C=C\CCN(C2=O)[C@@H](CC2CCC(F)(F)CC2)C(=O)N(C)CC(=O)N[C@@H](CCc2ccc(C(F)(F)F)c(Cl)c2)C(=O)N2C[C@H](OCC)C[C@H]2C(=O)NC2(CC(C)(C)C2)C(=O)N(C)[C@@H](C(CC)CC)C(=O)N(C)[C@H](C(=O)N(C)C)CC(=O)N1C [PP2460],Kd,[1]; 1:1 binding model,0.71 nM
same,IC50,[2],18.7 nM
same,NRAS /KRAS,[3],A (a compound having 10 or more and less than 20 is denoted as A)
same,HRAS /KRAS,HRAS wild-type protein,A (a compound having 10 or more and less than 20 is denoted as A)
CCCOC[C@H]1C(=O)N[C@@H]([C@@H](C)CC)C(=O)N(C)CC(=O)N(C)[C@H]2C/C=C\CCN(C2=O)[C@@H](CC2CCC(F)(F)CC2)C(=O)N(C)CC(=O)N[C@@H](CCc2ccc(C(F)(F)F)c(Cl)c2)C(=O)N2C[C@H](OCC)C[C@H]2C(=O)NC2(CC(C)(C)C2)C(=O)N(C)[C@@H](C(CC)CC)C(=O)N(C)[C@H](C(=O)N(C)C)CC(=O)N1C [PP2484],Kd,[1]; 1:1 binding model,1 nM
same,IC50,[2],74.3 nM
same,NRAS /KRAS,[3],A (a compound having 10 or more and less than 20 is denoted as A)
same,HRAS /KRAS,HRAS wild-type protein,A (a compound having 10 or more and less than 20 is denoted as A)
CCO[C@@H]1C[C@H]2C(=O)NC3(CC(C)(C)C3)C(=O)N(C)[C@@H](C(CC)CC)C(=O)N(C)[C@H](C(=O)N(C)C)CC(=O)N(C)[C@@H](C(C)C)C(=O)N[C@@H]([C@@H](C)CC)C(=O)N(C)CC(=O)N(C)[C@H]3C/C=C\CCN(C3=O)[C@@H](CC3CCC(F)(F)CC3)C(=O)N(C)CC(=O)N[C@@H](CCc3ccc(C(F)(F)F)c(Cl)c3)C(=O)N2C1 [PP2492],Kd,[1]; 1:1 binding model,2.4 nM
same,IC50,[2],76.7 nM
same,NRAS /KRAS,[3],AA (a compound having 20 or more is denoted as AA)
same,HRAS /KRAS,HRAS wild-type protein,A (a compound having 10 or more and less than 20 is denoted as A)
CCO[C@@H]1C[C@H]2C(=O)OC3(CCC3)C(=O)N(C)[C@@H](C3CCCC3)C(=O)N(C)[C@H](C(=O)N(C)C)CC(=O)N(C)[C@@H](CC(C)C)C(=O)N[C@@H]([C@@H](C)CC)C(=O)N(C3CC3)CC(=O)N(C)[C@H]3C/C=C\CCN(C3=O)[C@@H](Cc3ccc(C(F)(F)F)cc3)C(=O)N(C)CC(=O)N[C@@H](CCc3ccc(C(F)(F)F)c(OC)c3)C(=O)N2C1 [PP3363],Kd,[1]; Single Cycle Kinetics,1.8 nM
same,IC50,[2],24.8 nM
same,NRAS /KRAS,[3],A (a compound having 10 or more and less than 20 is denoted as A)
same,HRAS /KRAS,HRAS wild-type protein,B (a compound having 3 or more and less than 10 is denoted as B)
CCC[C@H]1C(=O)N[C@@H]([C@@H](C)CC)C(=O)N(C)CC(=O)N(C)[C@H]2C/C=C\CCN(C2=O)[C@@H](Cc2ccc(C(F)(F)F)cc2)C(=O)N(C)CC(=O)N[C@@H](CCc2cc(F)c(C(F)(F)F)c(F)c2)C(=O)N2CC3(CC3)C[C@H]2C(=O)NC2(CCC2)C(=O)N(C)[C@@H](CC(C)(C)C)C(=O)N(C)[C@H](C(=O)N(C)C)CC(=O)N1C [PP3406],Kd,[1]; Single Cycle Kinetics,0.035 nM
same,IC50,[2],5.7 nM
same,NRAS /KRAS,[3],A (a compound having 10 or more and less than 20 is denoted as A)
same,HRAS /KRAS,HRAS wild-type protein,B (a compound having 3 or more and less than 10 is denoted as B)
CCC[C@H]1C(=O)N[C@@H]([C@@H](C)CC)C(=O)N(C2CC2)CC(=O)N(C)[C@H]2C/C=C\CCN(C2=O)[C@@H](Cc2ccc(C(F)(F)F)cc2)C(=O)N(C)CC(=O)N[C@@H](CCc2cc(F)c(C(F)(F)F)c(F)c2)C(=O)N2C[C@H](OCC)C[C@H]2C(=O)NC2(CCCC2)C(=O)N(C)[C@@H](C2CCCC2)C(=O)N(C)[C@H](C(=O)N(C)C)CC(=O)N1C [PP3473],Kd,[1]; Single Cycle Kinetics,0.53 nM
same,IC50,[2],13.5 nM
same,NRAS /KRAS,[3],AA (a compound having 20 or more is denoted as AA)
same,HRAS /KRAS,HRAS wild-type protein,B (a compound having 3 or more and less than 10 is denoted as B)
